# According to patent publication US6639121B1, “Inducible cancer model to study the molecular basis of host tumor cell interactions in vivo” (Dana-Farber Cancer Institute, Inc., priority 1999, dated 2003):
# How the values were obtained:
# [1] = tested on: Tyr/Tet-RAS INK4a−/− melanoma cell lines; test: SCID explant tumorigenicity of melanoma cell lines; format: in vivo, mouse; settings: SCID mice treated with doxycycline
# From the text: To this end, we first assessed the impact of doxycycline withdrawal in different Tyr/Tet-RAS INK4a−/− tumor derived cell lines in cell culture. […] The derivative melanoma cell lines remained doxycycline-responsive as shown by their strict doxycycline-dependency for tumorigenic potential in SCID mice. Specifically, subcutaneous injection of purified Tyr/Tet-RAS INK4a−/− melanoma cell lines yielded tumors in SCID mice treated with doxycycline with 100% efficiency, while those mice not receiving doxycycline remained tumor-free after many months of observation (FIG. 3A). […] On the other hand, the data is also consistent with the possibility that tumor regression following doxycycline withdrawal may reflect a continued requirement for RAS in promoting and sustaining non-cell-autonomous tumor-host interactions that are essential for tumor growth and maintenance.
# Primary tumors, derivative cell lines and SCID explant tumors. Transgenic mice were fed doxycycline drinking water (2 mg/ml sucrose water) and observed for spontaneous tumor development. Primary tumors were adapted to culture by mechanical mincing with sterilized razor blades and brief trypsinization and maintained on RPMI media containing 10% serum and supplemented with doxycycline (2 μg/ml media)^4. […]
# [2] = tested on: Tyr/Tet-RAS INK4a−/− mice; test: Doxycycline-induced melanoma development in transgenic mice; format: in vivo, mouse; settings: doxycycline in the drinking water from weaning
# From the text: To develop a cancer model in which dominantly acting oncoproteins are somatically regulated in vivo, transgenic mouse lines harboring the reverse tetracycline transactivator^2 under the control of the tyrosinase gene promoter-enhancer elements (designated Tyr-rtTA) and another containing the H-RAS^V12G open reading frame driven by a minimal promoter containing multimerized tet-operons.^2,3 (designated Tet-RAS) were inter-crossed with INK4a+/− mice to generate cohorts of single and double transgenic mice (designated Tyr/Tet-RAS) homozygous null for INK4a. Upon weaning, a subset of single and double transgenic INK4a −/− mice were administered doxycycline in the drinking water^4. In the doxycycline-treated group, 10 of 40 Tyr/Tet-RAS INK4a−/− mice developed melanomas with an average latency of 60 days (FIG. 1A). […] The Tyr/Tet-RAS INK4a−/− melanomas shared all of the macroscopic features of the constitutive Tyr-RAS INK4a−/− melanomas 5, manifesting as amelanotic, invasive and highly vascular tumors—features reminiscent of nodular-type melanoma in humans (for example, see FIGS. 2A&B).
# Production of the transgenic mice. The reverse tetracycline transactivator (rtTA) is a 1050 bp EcoRI/BamHI fragment isolated from pUHD172-1neo^2. The Tet promoter contains a XhoI/EcoRI fragment of CMV minimal promoter linked to the tet operator sequences^2. […]
smiles,measurement,setting,value
C[C@H]1c2cccc(O)c2C(=O)C2=C(O)[C@]3(O)C(=O)C(C(N)=O)=C(O)[C@@H](N(C)C)[C@@H]3[C@@H](O)[C@@H]21 [doxycycline],efficiency of tumor formation after subcutaneous injection,[1],100%
same,average latency of melanoma development,[2],60 days
